This is an account of results in article PMC5468247, “Development of a selective agonist for relaxin family peptide receptor 3” (Scientific Reports, 2017).

The target of assay [1] is T1, human RXFP3 (Homo sapiens, UniProt Q9NSD7).
T1 construct: expressed in transfected cells; host or cells: HEK293T
T1 sequence (Q9NSD7 1-469): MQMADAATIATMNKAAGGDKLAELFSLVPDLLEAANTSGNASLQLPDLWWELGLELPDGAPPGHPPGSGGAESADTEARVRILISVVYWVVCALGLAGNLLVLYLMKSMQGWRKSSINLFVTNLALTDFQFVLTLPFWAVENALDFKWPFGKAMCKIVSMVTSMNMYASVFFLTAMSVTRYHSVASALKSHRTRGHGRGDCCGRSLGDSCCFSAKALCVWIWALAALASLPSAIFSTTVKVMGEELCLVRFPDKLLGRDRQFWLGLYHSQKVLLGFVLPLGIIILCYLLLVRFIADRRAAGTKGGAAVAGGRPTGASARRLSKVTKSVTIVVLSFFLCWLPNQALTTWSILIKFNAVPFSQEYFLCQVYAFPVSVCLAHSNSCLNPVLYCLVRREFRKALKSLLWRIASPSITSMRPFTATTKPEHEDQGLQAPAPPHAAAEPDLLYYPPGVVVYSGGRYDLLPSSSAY
Briefly: Receptor binding assay, NanoLuc-conjugated R3/I5 tracer competition. Conditions: compared with R3/I5. As for the experimental part: (§1) Specific binding data are expressed as means ± SE (n = 3) and fitted to sigmoidal curves using SigmaPlot 10.0 software.
(§2) Briefly, HEK293T cells were transiently transfected with an expression construct of human RXFP3 or human RXFP4. On the next day, transfected cells were trypsinised, seeded into 96-well plates, and continuously cultured for 24–36 h to ~100% confluence. […] After incubation at 21 °C for 2 h, binding solution was removed and cells were washed twice with ice-cold phosphate-buffered saline (200 μl/well for each wash). Thereafter, cells were lysed by lysis solution (100 μl/well, Promega, Madison, WI, USA) and cell lysates were transferred to a white opaque 96-well plate (50 μl/well). After mixing with freshly diluted substrate (50 μl/well), bioluminescence was immediately measured on a SpectraMax M5 plate reader (Molecular Devices, Sunnyvale, CA, USA) in luminescence mode. […] The calculated specific binding data were expressed as means ± standard error (SE; n = 3) and fitted to sigmoidal curves using SigmaPlot 10.0 software.

For assay [2], the target named is T2, human RXFP4 (Homo sapiens, UniProt Q8TDU9).
T2 construct: expressed in transfected cells; host or cells: HEK293T
The description is as above. Conditions: compared with R3/I5. As for the experimental part:
as §1, §2

Assay [3] addresses T1, human RXFP3. Briefly: Receptor activation assay, CRE-controlled NanoLuc reporter. It counts as cell-based. Conditions: CRE-NanoLuc reporter, human RXFP3; compared with R3/I5. The source says:
(§3) HEK293T cells transiently cotransfected with a CRE-controlled NanoLuc reporter vector and the expression construct of human RXFP3 or human RXFP4 were used for activation assays. The measured bioluminescence data are expressed as means ± SE (n = 3) and fitted to sigmoidal or linear curves using SigmaPlot 10.0.
(§4) Briefly, HEK293T cells were transiently cotransfected with the NanoLuc reporter vector pNL1.2/CRE and the expression construct of human RXFP3 or human RXFP4. On the next day, transfected cells were trypsinised, seeded into 96-well plates, and continuously cultured for 24–36 h to ~90% confluence. To initiate activation assays, medium was removed and activation solution (serum-free DMEM medium plus 1% bovine serum albumin) containing 1.0 μM of forskolin and various concentrations of peptide was added (100 μl/well). After continuous culturing at 37 °C for 4 h, activation solution was removed and cells were lysed with lysis solution (100 μl/well, Promega). Cell lysates were then transferred to a white opaque 96-well plate (50 μl/well), mixed with freshly diluted substrate (50 μl/well), and bioluminescence was immediately measured on a SpectraMax M5 plate reader (Molecular Devices) in luminescence mode. The measured data were expressed as means ± SE (n = 3) and fitted to sigmoidal or linear curves using SigmaPlot 10.0 software.

For assay [4], the target named is T2, human RXFP4. The description is as above. The class given is cell-based. As to conditions: for activation potency towards RXFP4, in words: compared with R3/I5.
Source text: as §3, §4

Structures are written as SMILES.

T2 sequence (Q8TDU9 whole entry): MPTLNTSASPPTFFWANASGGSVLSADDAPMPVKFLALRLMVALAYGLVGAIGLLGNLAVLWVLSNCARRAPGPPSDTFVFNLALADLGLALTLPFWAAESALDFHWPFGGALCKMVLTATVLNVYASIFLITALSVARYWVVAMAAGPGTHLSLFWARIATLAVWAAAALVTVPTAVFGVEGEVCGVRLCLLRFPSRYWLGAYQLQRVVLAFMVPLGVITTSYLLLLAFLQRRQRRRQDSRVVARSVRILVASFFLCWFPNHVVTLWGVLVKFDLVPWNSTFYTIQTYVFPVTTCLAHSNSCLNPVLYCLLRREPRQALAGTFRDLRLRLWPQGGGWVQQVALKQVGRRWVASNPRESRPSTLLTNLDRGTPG

Consider `CC[C@H](C)[C@@H]1NC(=O)[C@H](Cc2ccccc2)NC(=O)[C@H](CCC(=O)O)NC(=O)[C@H](CCCNC(=N)N)NC(=O)CNC(=O)[C@@H](NC(=O)[C@H](CC(C)C)NC(=O)[C@H](CCCNC(=N)N)NC(=O)[C@@H](NC(=O)CNC(=O)[C@H](Cc2ccc(O)cc2)NC(=O)[C@@H]2CCCN2C(=O)[C@H](C)NC(=O)[C@H](C)NC(=O)[C@H](CCCNC(=N)N)NC(=O)[C@@H]2CCC(=O)N2)C(C)C)CSSC[C@@H]2NC(=O)[C@@H](NC(=O)[C@H](CC(C)C)NC(=O)[C@@H](NC(=O)[C@H](CCC(N)=O)NC(=O)[C@H](CC(C)C)NC(=O)[C@H](CC(=O)O)NC(=O)[C@H](CCC(N)=O)NC(=O)[C@H](CCCNC(=N)N)NC(=O)[C@H](CO)NC(=O)[C@H](CCCNC(=N)N)NC(=O)[C@H](CCCNC(=N)N)NC(=O)[C@H](CO)NC(=O)[C@@H](N)CCCNC(=N)N)[C@@H](C)O)CSSC[C@H](NC(=O)CNC(=O)[C@H](CC(=O)O)NC(=O)[C@H]([C@@H](C)O)NC2=O)C(=O)N[C@@H](CO)C(=O)N[C@@H](CCSC)C(=O)N[C@@H]([C@@H](C)O)C(=O)N[C@@H](CC(=O)O)C(=O)N[C@@H](CC(C)C)C(=O)N[C@@H](CO)C(=O)N[C@@H](C)C(=O)N[C@@H](CC(C)C)C(=O)N[C@H](C(=O)O)CSSC[C@@H](C(=O)N[C@@H](CO)C(=O)NCC(=O)N[C@@H](CO)C(=O)N[C@@H](CCCNC(=N)N)C(=O)N[C@@H](Cc2c[nH]c3ccccc23)C(=O)O)NC(=O)[C@H]([C@@H](C)O)NC(=O)[C@H](Cc2ccccc2)NC(=O)[C@H]([C@@H](C)CC)NC(=O)[C@H](C(C)C)NC(=O)[C@H](C)NC(=O)[C@H](CCCNC(=N)N)NC1=O` [[G(B23)S]R3/I5], for which the “binding potency towards RXFP3, in words” value in assay [1] was “retained considerable binding potency”. Further, the “binding potency towards RXFP4, in words” value in assay [2] is reported as “retained high binding potency”. For the same molecule, the “activation potency towards RXFP3, in words” value in assay [3] is given as “lost all activation potency”. The “fold lower activation potency towards RXFP4 compared with R3/I5” value in assay [4] (relative to R3/I5) is ~ 100 fold.

As for `CC[C@H](C)[C@@H]1NC(=O)[C@H](Cc2ccccc2)NC(=O)[C@H](CCC(=O)O)NC(=O)[C@H](CCCNC(=N)N)NC(=O)CNC(=O)[C@@H](NC(=O)[C@H](CC(C)C)NC(=O)[C@H](CCCNC(=N)N)NC(=O)[C@@H](NC(=O)CNC(=O)[C@H](Cc2ccc(O)cc2)NC(=O)[C@@H]2CCCN2C(=O)[C@H](C)NC(=O)[C@H](C)NC(=O)[C@H](CCCNC(=N)N)NC(=O)[C@@H]2CCC(=O)N2)C(C)C)CSSC[C@@H]2NC(=O)[C@@H](NC(=O)[C@H](CC(C)C)NC(=O)[C@@H](NC(=O)[C@H](CCC(N)=O)NC(=O)[C@H](CC(C)C)NC(=O)[C@H](CC(=O)O)NC(=O)[C@H](CCC(N)=O)NC(=O)[C@H](CCCNC(=N)N)NC(=O)[C@H](CO)NC(=O)[C@H](CCCNC(=N)N)NC(=O)[C@H](CCCNC(=N)N)NC(=O)[C@H](CO)NC(=O)[C@@H](N)CCCNC(=N)N)[C@@H](C)O)CSSC[C@H](NC(=O)CNC(=O)[C@H](CC(=O)O)NC(=O)[C@H]([C@@H](C)O)NC2=O)C(=O)N[C@@H](CO)C(=O)N[C@@H](CCSC)C(=O)N[C@@H]([C@@H](C)O)C(=O)N[C@@H](CC(=O)O)C(=O)N[C@@H](CC(C)C)C(=O)N[C@@H](CO)C(=O)N[C@@H](C)C(=O)N[C@@H](CC(C)C)C(=O)N[C@H](C(=O)O)CSSC[C@@H](C(=O)NCC(=O)N[C@@H](C)C(=O)N[C@@H](CO)C(=O)N[C@@H](CCCNC(=N)N)C(=O)N[C@@H](Cc2c[nH]c3ccccc23)C(=O)O)NC(=O)[C@H]([C@@H](C)O)NC(=O)[C@H](Cc2ccccc2)NC(=O)[C@H]([C@@H](C)CC)NC(=O)[C@H](C(C)C)NC(=O)[C@H](C)NC(=O)[C@H](CCCNC(=N)N)NC1=O` [[G(B24)A]R3/I5], the “binding potency towards RXFP3, in words” value in assay [1] was “retained full binding potency”. The “binding potency towards RXFP4, in words” value in assay [2] is “retained full binding potency”. Further, the “activation potency towards RXFP3, in words” value in assay [3] is given as “retained full activation potency”. Moreover, the “activation potency towards RXFP4, in words” value in assay [4] is “retained full activation potency”.

On to `CC[C@H](C)[C@@H]1NC(=O)[C@H](Cc2ccccc2)NC(=O)[C@H](CCC(=O)O)NC(=O)[C@H](CCCNC(=N)N)NC(=O)CNC(=O)[C@@H](NC(=O)[C@H](CC(C)C)NC(=O)[C@H](CCCNC(=N)N)NC(=O)[C@@H](NC(=O)CNC(=O)[C@H](Cc2ccc(O)cc2)NC(=O)[C@@H]2CCCN2C(=O)[C@H](C)NC(=O)[C@H](C)NC(=O)[C@H](CCCNC(=N)N)NC(=O)[C@@H]2CCC(=O)N2)C(C)C)CSSC[C@@H]2NC(=O)[C@@H](NC(=O)[C@H](CC(C)C)NC(=O)[C@@H](NC(=O)[C@H](CCC(N)=O)NC(=O)[C@H](CC(C)C)NC(=O)[C@H](CC(=O)O)NC(=O)[C@H](CCC(N)=O)NC(=O)[C@H](CCCNC(=N)N)NC(=O)[C@H](CO)NC(=O)[C@H](CCCNC(=N)N)NC(=O)[C@H](CCCNC(=N)N)NC(=O)[C@H](CO)NC(=O)[C@@H](N)CCCNC(=N)N)[C@@H](C)O)CSSC[C@H](NC(=O)CNC(=O)[C@H](CC(=O)O)NC(=O)[C@H]([C@@H](C)O)NC2=O)C(=O)N[C@@H](CO)C(=O)N[C@@H](CCSC)C(=O)N[C@@H]([C@@H](C)O)C(=O)N[C@@H](CC(=O)O)C(=O)N[C@@H](CC(C)C)C(=O)N[C@@H](CO)C(=O)N[C@@H](C)C(=O)N[C@@H](CC(C)C)C(=O)N[C@H](C(=O)O)CSSC[C@@H](C(=O)NCC(=O)N[C@@H](CCC(=O)O)C(=O)N[C@@H](CO)C(=O)N[C@@H](CCCNC(=N)N)C(=O)N[C@@H](Cc2c[nH]c3ccccc23)C(=O)O)NC(=O)[C@H]([C@@H](C)O)NC(=O)[C@H](Cc2ccccc2)NC(=O)[C@H]([C@@H](C)CC)NC(=O)[C@H](C(C)C)NC(=O)[C@H](C)NC(=O)[C@H](CCCNC(=N)N)NC1=O` [[G(B24)E]R3/I5], for which the “binding potency towards RXFP3, in words” value in assay [1] is “retained low binding potency”. The “binding potency towards RXFP4, in words” value in assay [2] is given as “retained low binding potency”. In assay [3], the “activation potency towards RXFP3, in words” value is given as “lost all activation potency”. For the same molecule, the “activation potency towards RXFP4, in words” value in assay [4] is recorded as “lost all activation potency”.
